Reference: patent publication US9402875B2, “Amidated dopamine neuron stimulating peptide restoration of mitochondrial activity” (University of Kentucky Research Foundation, priority 2006, dated 2016)
Entries after “also recorded” stand apart in the source; their conditions may differ. Ends that are not written are not given here.

How the values were obtained:
[1] = system: MN9D dopaminergic cells; assay: Caspase-3 activity assay, protection against 6-OHDA toxicity; assay type: cell-based; details: 1 ng/mL for 1 hour before 100 μM 6-OHDA for 15 min; at 3 h
Experimental: MN9D Cell Cultures: The MN9D cell line has been described by Choi (1991) Brain Res. 552:67-76 and was a gift from Michael Zigmond. Cells were cultured in DMEM supplemented with 10% Fetal Bovine Serum (FBS, Hyclone), 50 U/mL penicillin and streptomycin. For experiments, the cells were plated on 24-well poly-D-lysine in DMEM with 1% (v/v) penicillin-streptomycin. The cells were grown at 37° C. in 5% CO2.
Caspase-3 Activity Assay in MN9D Cells: MN9D cells were plated to 100,000 cells/well. Cell cultures were exposed to DNSP-11 (1 ng/mL) or buffer for 1 hour prior to 15 min 100 μM 6-OHDA exposure. Caspase-3 activity was monitored after 3 hours by fluorescence (excitation/emission 496/520 nm) using the Enz Chek Caspase-3 kit. Protein levels of lysed cells were measured by BCA assay (BioRad) and normalized for every experiment. Data expressed as % control and repeated a minimum of 3 times.
To evaluate DNSP-11's neuroprotective properties, DNSP-11 was compared to GDNF in its protection against 6-OHDA-induced toxicity in the dopaminergic cell line, MN9D. MN9D dopaminergic cells were incubated for 1 hour with either citrate buffer (control), 1 ng/mL of DNSP-11 or GDNF prior to 100 μM 6-OHDA exposure for 15 min. Data are +SD, one-way ANOVA with Tukey's post hoc analysis, *p<0.05, **p<0.01, ***p<0.001 vs. control; #p<0.05, ##p<0.01, ###p<0.001 vs. 6-OHDA.

[2] = target: T1, glyceraldehyde-3-phosphate dehydrogenase (GAPDH) (Rattus norvegicus, UniProt P04797); assay: DNSP-11 pull-down with substantia nigra homogenate, 2D-PAGE and MALDI-TOF MS; assay type: binding
T1 construct: homogenate from isolated substantia nigra of normal young Fischer 344 rats; from tissue; host or cells: substantia nigra of Fischer 344 rats (cytosolic and membrane fractions)
Experimental: DNSP-11 Pull-down analysis: The F344 substantia nigra was homogenized in homogenization buffer (modified from York et al. (2005) FASED J. 19: 1202-4 with 20 mM HEPES, pH 7.4) and cytosolic fraction (supernatant) collected after 30 minutes at 100,000 g. 50 μg of bDNSP-11 was incubated with fraction for 15 minutes on ice. Sample was added to streptavidin magnetic beads (New England Biolabs), pelleted, and washed four times in homogenization buffer. Bound proteins were eluted by Solubilization/Rehydration Solution (7 M Urea, 2 M Thiourea, 50 mM DTT, 4% CHAPS, 1% NP-40, 0.2% Carrier ampholytes, 0.0002% Bromophenol blue), and analyzed by 2D-PAGE and MALDI-TOF MS.
In order to identify the interactions of DNSP-11 with protein partners and to gain insight into the cellular mechanisms involved with the actions of DNSP-11, a pull-down assay was performed with homogenate from isolated substantia nigra of normal young Fischer 344 rats. Cytosolic and membrane fractions were collected and incubated with biotinylated DNSP-11 for 30 minutes. Bound proteins were pulled down by strepavidin magnetic beads, extensively washed to remove non-specific binders, eluted with solubilization/rehydration buffer and separated by 2D-PAGE.
To identify these binding partners, protein bands were excised from the gels, trypsin digested, and analyzed by MALDI-TOF mass spectrometry. […]

[3] = system: B65 cells; assay: JC-1 mitochondrial membrane potential assay; assay type: cell-based
Experimental: (§1) MN9D cells and B65 cells were cultured in Dulbecco's Modified Eagle's Medium (DMEM; 11995 (containing pyridoxol HCl); Sigma, St. Louis, Mo.) supplemented with 10% fetal bovine serum (HyClone, Logan, Utah), 50 U/mL penicillin and streptomycin. For each assay the cells were treated with mitochondrial-specific environmental toxins, i.e., MPP+, rotenone, and/or TaClo, and with or without DNSP-11. After incubation with the toxins, the cells were plated on 24-well poly-D-lysine plates (50,000 cells/well) for TUNEL assay (as described below) or 100,000 cell/well for caspase-3 assay in DMEM medium with 1% (v/v) penicillin-streptomycin only (as described below).
(§2) MN9D and B65 cells were treated with either 50 nM, 100 nM, 250 nM, 500 nM, 2.5 μM or 5 μM rotenone, 50 nM, 100 nM, 250 nM 1-methyl-4-phenylpyridinium (MPP+), or 10 μM , 25 μM, 50 μM, 100 μM, 150 μM or […]-1,2,3,4-tetrahydro-β-carboline (TaClo), for 1 to 12 hours and then incubated at 37° C. in 5% CO2 following pretreatment (1 to 30 minutes) with or without 100 nM or 10 nM DNSP-11. After treatment with rotenone, MPP+ or TaClo and incubation with DNSP-11, the cells were incubated for 30 minutes at 37° C. in a 5% CO2 incubator in the presence of 10 μM of the green fluorescent JC-1 (5,5′, 6,6′-tetrachloro-1,1′,3,3′-tetraethylbenzimidazolyl-cabo-cyanine iodine, T-3168 (Invitrogen)) and then washed in Locke's solution. Optical measurements were acquired with excitation at 485 nm and emission at 527 nm, and 590 nm. The levels of fluorescence at each emission wavelengths were quantified and ratio of measurements was assessed. The pertinent data are given as mean±S.E.M. for mean optical measurements. The values are expressed as percent of the mean control values ±S.E.M. and analyzed using ANOVA.

[4] = system: MN9D cells; assay: JC-1 mitochondrial membrane potential assay; assay type: cell-based
Experimental: as §1, §2

[5] = MPP+, rotenone or TaClo 1 to 12 hours, pretreatment with 10 nM or 100 nM DNSP-11

T1 sequence (P04797 whole entry): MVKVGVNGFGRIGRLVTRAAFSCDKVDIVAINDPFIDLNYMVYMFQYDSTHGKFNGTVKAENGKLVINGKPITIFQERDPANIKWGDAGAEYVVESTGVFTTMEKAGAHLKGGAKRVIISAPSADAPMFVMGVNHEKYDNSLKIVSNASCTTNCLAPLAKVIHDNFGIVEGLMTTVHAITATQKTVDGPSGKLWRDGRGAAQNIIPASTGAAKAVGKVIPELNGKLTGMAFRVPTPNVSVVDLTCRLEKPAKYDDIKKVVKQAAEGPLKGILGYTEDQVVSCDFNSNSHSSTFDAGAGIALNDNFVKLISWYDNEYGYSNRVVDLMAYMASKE

In the case of “PPEAPAEDRSL-NH2 [DNSP-11, PPEAPAEDRSL-amide]”, the caspase-3 activity [1] is reported as “significant reduction”, the “GAPDH as binding partner in pull-down” value ([2]; biotinylated DNSP-11, substantia nigra fractions, confirmed with pure GAPDH) is reported as “identified” and the “number of bound proteins identified” value ([2]; cytosolic and membrane fractions, preliminary studies) is reported as “approximately 20”. For the same substance, the “mitochondrial potential, protection from toxins” value [3, 5] was “protects the cells; also recorded: significant protection”, the “mitochondrial potential, DNSP-11 alone” value ([3]; no toxin) was “no significant effect” and the “mitochondrial potential, protection from toxins” value [4, 5] was “protects the cells; also recorded: significant protection”. The “mitochondrial potential, DNSP-11 alone” value ([4]; no toxin) was “no significant effect”.
